Assay results as given in BindingDB's records for doi:10.1111/cbdd.12746 (Ahi Evran University, 2016).
pIC50, pKi: −log10 of the molar value.

Target: Serum paraoxonase/arylesterase 1 (Homo sapiens, UniProt P27169)
Assay: Paraoxonase Activity Assay
Conditions: pH 10.5
Method: Paraoxonase enzyme activity was determined at 25 °C with paraoxon (1 mM) in 50 mM glycine-NaOH (pH 10.5) containing 1 mM CaCl2. The enzyme assay was based on the estimation of p-nitrophenol at 412 nm. Assays were performed using a spectrophotometer (CHEBIOS UV-VIS, Fullerton, CA). The molar extinction coefficient of paranitrophenol (Ɛ = 18 290/M/cm at pH 10.5) is used for thecalculation of enzyme activity. One enzyme unit was defined as the amount of enzyme that catalyzes the hydrolysis of 1 µmol of paraoxon at 25 °C (J. Chromatogr. B. 2006, 836:15-21).

Chain of Serum paraoxonase/arylesterase 1 (P27169 whole entry): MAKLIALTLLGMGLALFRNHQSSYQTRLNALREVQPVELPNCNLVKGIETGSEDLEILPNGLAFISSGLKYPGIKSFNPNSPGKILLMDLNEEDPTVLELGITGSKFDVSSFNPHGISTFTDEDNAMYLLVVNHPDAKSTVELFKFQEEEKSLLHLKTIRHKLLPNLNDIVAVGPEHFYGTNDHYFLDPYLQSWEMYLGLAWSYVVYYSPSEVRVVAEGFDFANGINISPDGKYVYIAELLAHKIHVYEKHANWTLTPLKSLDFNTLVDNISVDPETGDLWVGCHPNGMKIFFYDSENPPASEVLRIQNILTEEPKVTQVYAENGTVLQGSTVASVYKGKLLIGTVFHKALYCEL

Structure (SMILES) | pIC50 | pKi
CC(=O)O[C@H]1C(=O)[C@@]2(C)[C@H]([C@H](OC(=O)c3ccccc3)[C@]3(O)C[C@H](OC(=O)[C@H](O)[C@@H](NC(=O)c4ccccc4)c4ccccc4)C(C)=C1C3(C)C)[C@]1(OC(C)=O)CO[C@@H]1C[C@@H]2O | 4.38 | 4.78
COc1cc([C@@H]2c3cc4c(cc3[C@@H](O[C@@H]3O[C@@H]5CO[C@@H](C)O[C@H]5[C@H](O)[C@H]3O)[C@H]3COC(=O)[C@H]23)OCO4)cc(OC)c1O [4'-Demethylepipodophyllotoxin 9-(4,6-O-(R)-ethylidene-beta-D-glucopyranoside)] | 3.65 | 3.88
CC(=O)O[C@@]12CO[C@@H]1C[C@H](O)[C@@]1(C)C(=O)[C@H](O)C3=C(C)[C@@H](OC(=O)[C@H](O)[C@@H](NC(=O)OC(C)(C)C)c4ccccc4)C[C@@](O)([C@@H](OC(=O)c4ccccc4)[C@H]21)C3(C)C [CID148124] | 3.18 | 3.54
O=P1(NCCCl)OCCCN1CCCl (stereo not drawn) [N,3-bis(2-chloroethyl)-2-oxo-1,3,2-oxazaphosphinan-2-amine] | 1.63 | 2.05
